This is an account of results in patent publication US12285487B2, “Liquid topical pharmaceutical nano-emulsion formulations” (JRX BIOTECHNOLOGY, INC., priority 2012, dated 2025).

Where only a bound is given, the exact number is not on record here.

Holding throughout (format): physicochemical
Series [1] can be described thus: Particle size of aspirin formulation vs dry aspirin (Example 4, DLS Z-average). On the procedure:
The particle size of aspirin (dry powder) and the aspirin diluted in the dermal and/or transdermal liquid formulation set forth in Example 1 were compared. Two studies were carried out to determine the particle size (and distribution) of samples of: (i) the formulation of Example 1, lacking only the aspirin (delivery system control), (ii) the formulation of Example 1, including the aspirin (experimental) and (iii) pure (dry) aspirin (control).

Series [2] in a line: Optical microscopic examination of neat API dry powder. Conditions: for estimates of size range by optical microscopy: 400× magnification. The source says:
Neat API: For optical microscopic/image analysis examination the material was used as received. A small aliquot was placed on a clean microscope slide and a clean glass coverslip placed on top.
(§1) The optical microscope was a Zeiss Model Std 25 fitted with a 40× objective. The particle size analyzers were the Horiba LA 950 (LD) and a Malvern NanoSizer 90Z (DLS). The Raman spectrometer was a Horiba XploRA Raman Microscope.

Series [3] can be described thus: Particle size analysis by laser diffraction of neat API. Conditions: for Particle Size Mean / Particle Size Median / Particle Size Mode: dispersed in cyclohexane. The source says: For particle size analysis, by laser diffraction (LD), a small sample of the dry powder was dispersed into cyclohexane with sonication and then diluted to an appropriate signal level. The optical microscope was a Zeiss Model Std 25 fitted with a 40× objective. […] The Raman spectrometer was a Horiba XploRA Raman Microscope.

A short description of series [4]: Particle size analysis by Dynamic Light Scattering (Example 8). Conditions: DLS intensity data.
From the text: as §1

On to `CC(=O)Oc1ccccc1C(=O)O` [pure (dry) Aspirin, acetylsalicylic acid], for which, in series [1] (dry aspirin vs formulated aspirin), the “size relative to aspirin in the formulation of Example 1” value is reported as “more than 10,000 times”. In series [1] (dry aspirin, prior to formulation), the average particle size was found to be 670 microns.

As for `CC(=O)Nc1ccc(O)cc1` [Acetaminophen, N-acetyl-para-aminophenol], in series [2], the “particle size prior to formulation” value is given as 1-100 microns and the “estimates of size range by optical microscopy” value (“estimates of size range” for short) is “from around one or two microns (μm) to over 100 μm”. In series [3], the “Particle Size Mean” value turned out to be 58 μm, the “Particle Size Median” value is 44 μm and the “Particle Size Mode” value came to 42 μm.

As to “Neat Insulin: insulin supplied as an aqueous solution/suspension”, the “presence of particles as large as” value in series [4] is on record as at most 5 μm.

With `COc1ccc2cc(C(C)C(=O)O)ccc2c1` (stereo not drawn) [Naproxen, 2-(6-methoxynaphthalen-2-yl)propanoic acid], in series [2], the “estimates of size range” value was “singlet particles of only a few microns in size and aggregates as large as 100 μm”. Besides, in series [3], the “size of the majority of particles” value is reported as “around 20 μm”, the “Particle Size Mean” value turned out to be 23 μm, the “Particle Size Median” value was determined as 23 μm and the “Particle Size Mode” value stood at 19 μm.

As for `CC(C(=O)O)c1cccc(C(=O)c2ccccc2)c1` (racemic) [Ketoprofen, (RS)2-(3-benzoylphenyl)-propionic acid], in series [3], the “size of the majority of particles” value is “about 30 μm”, the “Particle Size Mean” value turned out to be 34 μm, the “Particle Size Median” value is recorded as 27 μm and the “Particle Size Mode” value came out at 28 μm.

For the compound `CC(C)Cc1ccc(C(C)C(=O)O)cc1` (stereo not drawn) [Ibuprofen, iso-butyl-propanoic-phenolic acid], the “estimates of size range” value in series [2] was “from around 10 μm to over 100 μm”. In series [3], the “Particle Size Mean” value came out at 78 μm, the “Particle Size Median” value came out at 70 μm and the “Particle Size Mode” value is reported as 72 μm.
